Structures are written as SMILES. Residues, ends and D or L forms follow the SMILES beside them.

As a reminder, the Ki is a measure of affinity in units of concentration, obtained from inhibition or displacement.

Assay [1] is described as follows: Inhibition of FXIIa (unknown origin) using Ac-QRFR-pNA as substrate measured at 30 sec interval by microplate reader assay. Set-up: species or system Homo sapiens.
Assay [2] is filed under the species Homo sapiens. The assay can be described thus: Potency index, ratio of M8 Ki to test compound Ki for inhibition of FXIIa (unknown origin).

`CC[C@H](C)[C@@H]1NC(=O)[C@@H]2CSSC[C@@H]3NC(=O)[C@H](CCC(N)=O)NC(=O)CNC(=O)CNC(=O)[C@H](CC(=O)O)NC(=O)[C@H](CO)NC(=O)CNC(=O)[C@@H]4CSSC[C@H](NC(=O)[C@H](CC(=O)O)NC(=O)[C@H](CO)NC(=O)[C@H](CC(=O)O)NC(=O)[C@H](CCCNC(=N)N)NC(=O)[C@H](CCCNC(=N)N)NC(=O)[C@H](CSSC[C@H](NC1=O)C(=O)N[C@@H](CCCNC(=N)N)C(=O)NCC(=O)N[C@@H](CC(N)=O)C(=O)NCC(=O)N[C@@H](Cc1ccc(O)cc1)C(=O)N4)NC(=O)[C@H](CCCCN)NC(=O)[C@H](CCCCN)NC(=O)[C@H](CC(C)C)NC(=O)[C@H]([C@@H](C)CC)NC(=O)[C@H](CCCNC(=N)N)NC(=O)[C@H](Cc1ccccc1)NC3=O)C(=O)N1CCC[C@H]1C(=O)NCC(=O)N[C@@H](C)C(=O)N2` (HELM PEPTIDE1{A.C.I.C.R.G.N.G.Y.C.G.S.D.G.G.Q.C.F.R.I.L.K.K.C.R.R.D.S.D.C.P.G}$PEPTIDE1,PEPTIDE1,2:R3-17:R3|PEPTIDE1,PEPTIDE1,4:R3-24:R3|PEPTIDE1,PEPTIDE1,10:R3-30:R3|PEPTIDE1,PEPTIDE1,1:R1-32:R2$$$V2.0): in assay [1], the Ki is 92 nM. The Ratio Ki in assay [2] came out at 2.1.
`CC[C@H](C)[C@@H]1NC(=O)[C@@H]2CSSC[C@H](NC(=O)[C@H](CCC(N)=O)NC(=O)CNC(=O)CN)C(=O)N[C@@H](Cc3ccccc3)C(=O)N[C@@H](CCCNC(=N)N)C(=O)N[C@@H]([C@@H](C)CC)C(=O)N[C@@H](CC(C)C)C(=O)N[C@@H](CCCCN)C(=O)N[C@@H](CCCCN)C(=O)N[C@@H]3CSSC[C@H](NC1=O)C(=O)N[C@@H](CCCNC(=N)N)C(=O)NCC(=O)N[C@@H](CC(N)=O)C(=O)NCC(=O)N[C@@H](Cc1ccc(O)cc1)C(=O)N[C@H](C(=O)NCC(=O)N[C@@H](C)C(=O)O)CSSC[C@H](NC(=O)[C@H](CC(=O)O)NC(=O)[C@H](CO)NC(=O)[C@H](CC(=O)O)NC(=O)[C@H](CCCNC(=N)N)NC(=O)[C@H](CCCNC(=N)N)NC3=O)C(=O)N1CCC[C@H]1C(=O)NCC(=O)N[C@@H](C)C(=O)N2`: in assay [1], the Ki is 157 nM.
For the compound `CC[C@H](C)[C@@H]1NC(=O)[C@H](CCCNC(=N)N)NC(=O)[C@H](Cc2ccccc2)NC(=O)[C@@H]2CSSC[C@H]3NC(=O)[C@H](C)NC(=O)CNC(=O)[C@@H]4CCCN4C(=O)[C@@H]4CSSC[C@H](NC(=O)[C@H](Cc5ccc(O)cc5)NC(=O)CNC(=O)[C@H](CC(N)=O)NC(=O)CNC(=O)[C@H](CCCNC(=N)N)NC(=O)[C@H](CSSC[C@H](NC(=O)[C@H](CCCCN)NC(=O)[C@H](CCCCN)NC(=O)[C@H](CC(C)C)NC1=O)C(=O)N[C@@H](CCCNC(=N)N)C(=O)N[C@@H](CCCNC(=N)N)C(=O)N[C@@H](CC(=O)O)C(=O)N[C@@H](CO)C(=O)N[C@@H](CC(=O)O)C(=O)N4)NC(=O)[C@H]([C@@H](C)CC)NC3=O)C(=O)NCC(=O)N[C@@H](CO)C(=O)NCC(=O)N[C@@H](CCC(N)=O)C(=O)N2`, the inhibition constant (Ki) in assay [1] came out at 156 nM. Besides, the Ratio Ki in assay [2] turned out to be 1.2.
On the same counts, the results for `CC[C@H](C)[C@@H]1NC(=O)[C@@H]2CSSC[C@@H]3NC(=O)[C@H](CCC(N)=O)NC(=O)CNC(=O)CNC(=O)[C@H](CO)NC(=O)CNC(=O)[C@H](CO)NC(=O)CNC(=O)[C@@H]4CSSC[C@H](NC(=O)[C@H](CC(=O)O)NC(=O)[C@H](CO)NC(=O)[C@H](CC(=O)O)NC(=O)[C@H](CCCNC(=N)N)NC(=O)[C@H](CCCNC(=N)N)NC(=O)[C@H](CSSC[C@H](NC1=O)C(=O)N[C@@H](CCCNC(=N)N)C(=O)NCC(=O)N[C@@H](CC(N)=O)C(=O)NCC(=O)N[C@@H](Cc1ccc(O)cc1)C(=O)N4)NC(=O)[C@H](CCCCN)NC(=O)[C@H](CCCCN)NC(=O)[C@H](CC(C)C)NC(=O)[C@H]([C@@H](C)CC)NC(=O)[C@H](CCCNC(=N)N)NC(=O)[C@H](Cc1ccccc1)NC3=O)C(=O)N1CCC[C@H]1C(=O)NCC(=O)N[C@@H](C)C(=O)N2` (HELM PEPTIDE1{A.C.I.C.R.G.N.G.Y.C.G.S.G.S.G.G.Q.C.F.R.I.L.K.K.C.R.R.D.S.D.C.P.G}$PEPTIDE1,PEPTIDE1,2:R3-18:R3|PEPTIDE1,PEPTIDE1,4:R3-25:R3|PEPTIDE1,PEPTIDE1,10:R3-31:R3|PEPTIDE1,PEPTIDE1,1:R1-33:R2$$$V2.0) are 140 nM and 1.4.
`CC[C@H](C)[C@@H]1NC(=O)[C@@H]2CSSC[C@H](NC(=O)[C@H](CCC(N)=O)NC(=O)CNC(=O)CN)C(=O)N[C@@H](Cc3ccccc3)C(=O)N[C@@H](CCCNC(=N)N)C(=O)N[C@@H]([C@@H](C)CC)C(=O)N[C@@H](CC(C)C)C(=O)N[C@@H](CCCCN)C(=O)N[C@@H](CCCCN)C(=O)N[C@H]3CSSC[C@H](NC1=O)C(=O)N[C@@H](CCCNC(=N)N)C(=O)NCC(=O)N[C@@H](CC(N)=O)C(=O)NCC(=O)N[C@@H](Cc1ccc(O)cc1)C(=O)N[C@H](C(=O)N[C@@H](C)C(=O)N[C@@H](CO)C(=O)O)CSSC[C@H](NC(=O)[C@H](CC(=O)O)NC(=O)[C@H](CO)NC(=O)[C@H](CC(=O)O)NC(=O)[C@H](CCCNC(=N)N)NC(=O)[C@H](CCCNC(=N)N)NC3=O)C(=O)N1CCC[C@H]1C(=O)NCC(=O)N[C@@H](C)C(=O)N2` (HELM PEPTIDE1{G.G.Q.C.F.R.I.L.K.K.C.R.R.D.S.D.C.P.G.A.C.I.C.R.G.N.G.Y.C.A.S}$PEPTIDE1,PEPTIDE1,4:R3-21:R3|PEPTIDE1,PEPTIDE1,11:R3-23:R3|PEPTIDE1,PEPTIDE1,17:R3-29:R3$$$V2.0): the affinity in assay [1], expressed as Ki, was 106 nM. Also, the Ratio Ki in assay [2] was -4.2.
Regarding `CC[C@H](C)[C@@H]1NC(=O)[C@@H]2CSSC[C@@H]3NC(=O)[C@H](CCC(N)=O)NC(=O)CNC(=O)CNC(=O)CNC(=O)[C@H](CO)NC(=O)CNC(=O)[C@@H]4CSSC[C@H](NC(=O)[C@H](CC(=O)O)NC(=O)[C@H](CO)NC(=O)[C@H](CC(=O)O)NC(=O)[C@H](CCCNC(=N)N)NC(=O)[C@H](CCCNC(=N)N)NC(=O)[C@H](CSSC[C@H](NC1=O)C(=O)N[C@@H](CCCNC(=N)N)C(=O)NCC(=O)N[C@@H](CC(N)=O)C(=O)NCC(=O)N[C@@H](Cc1ccc(O)cc1)C(=O)N4)NC(=O)[C@H](CCCCN)NC(=O)[C@H](CCCCN)NC(=O)[C@H](CC(C)C)NC(=O)[C@H]([C@@H](C)CC)NC(=O)[C@H](CCCNC(=N)N)NC(=O)[C@H](Cc1ccccc1)NC3=O)C(=O)N1CCC[C@H]1C(=O)NCC(=O)N[C@@H](C)C(=O)N2` (HELM PEPTIDE1{A.C.I.C.R.G.N.G.Y.C.G.S.G.G.G.Q.C.F.R.I.L.K.K.C.R.R.D.S.D.C.P.G}$PEPTIDE1,PEPTIDE1,2:R3-17:R3|PEPTIDE1,PEPTIDE1,4:R3-24:R3|PEPTIDE1,PEPTIDE1,10:R3-30:R3|PEPTIDE1,PEPTIDE1,1:R1-32:R2$$$V2.0), the Ki in assay [1] amounted to 76 nM. The Ratio Ki in assay [2] was 2.6.

Source of the values: ChEMBL document CHEMBL5236588 (J Med Chem, 2022).
